In article PMC9266460, “KSK-74: Dual Histamine H3 and Sigma-2 Receptor Ligand with Anti-Obesity Potential” (International Journal of Molecular Sciences, 2022):

Legend:
[1] = molecular target: T1, H3R (Homo sapiens, UniProt Q9Y5N1); assay: Intrinsic activity at H3R, range over both methods (LANCE Ultra cAMP and Aequoscreen); assay type: cell-based; conditions: read-out: IC50 at H3R, range depending on the assay method
T1 construct: the Aequoscreen line co-expresses apoaequorin
Protocol: The Aequoscreen technology uses recombinant cell lines with stable co-expression of apoaequorin and a GPCR as a system to detect activation of the receptor, following the addition of an agonist, via the measurement of light emission. For the measurement, cells (frozen, ready to use) were thawed and resuspended in 10 mL of assay buffer containing 5 μM of coelenterazine h. The cell suspension was then placed in a 10 mL Falcon tube, fixed on a rotating wheel, and incubated overnight at RT° in the dark. Cells were diluted with assay buffer at 5000 cells/20 µL. Agonistic ligands 2 × (50 μL/well), diluted in assay buffer, were prepared in 1/2 area white polystyrene plates, and 50 μL of cell suspension was dispersed on the ligands using the injector. The light emission was recorded for 20 s. Cells were incubated with antagonist for 15 min at RT°. Then, 50 µL of agonist (final concentration equal to 3 × EC80) was injected into the mixture of cells and antagonist and light emission was recorded for 20 s. The LANCE Ultra cAMP assay as a homogeneous time-resolved fluorescence resonance energy transfer (TR-FRET) immunoassay is designed to measure cAMP produced upon the modulation of adenylyl cyclase activity by GPCRs. […] For the measurement, cells (frozen, ready to use) were thawed and resuspended in 4 mL of HBSS 1×. […]

[2] = test system: rats fed a palatable diet; assay: Model of excessive eating: body weight, calorie intake, fat pads; assay type: in vivo, female Wistar rats; conditions: for body weight during administration (time course): 10 mg/kg i.p. daily, persisted until the 28th day; for amount of peritoneal fat pads vs palatable diet + vehicle: KSK 10 mg/kg, end of experiment; for amount of peritoneal fat pads vs palatable diet + vehicle / body weight gain vs palatable diet + vehicle: phentermine 7 mg/kg; for calorie intake vs control group fed palatable feed: i.p. 28 days, KSK 10 mg/kg b.w., phentermine 7 mg/kg b.w.; for body weight vs palatable diet + vehicle / body weight gain vs palatable diet + vehicle: i.p. daily 4 weeks; for body weight vs palatable diet + vehicle: 1 mg/kg; for body weight gain vs palatable diet + vehicle: KSK-60/KSK-74 10 mg/kg b.w.
Protocol: Experiments were performed on female Wistar rats with an initial body weight of 140–160 g. The animals were housed in plastic cages (2 rats per cage) at a constant room temperature of 22 ± 2 °C, with a 12:12 h light/dark cycle. Water and food were available ad libitum. The randomly established experimental groups consisted of 6 rats for pharmacological studies and 3 rats for pharmacokinetic studies. All experiments were conducted in accordance with the Guide to the Care and Use of Experimental Animals, and were approved by the Jagiellonian University in Krakow Local Ethics Committee for Experiments on Animals (Permission No: 185/2017, 220/2019 and 223A/2019).
Female rats were randomly divided into several groups (n = 6) and studied for 4 weeks. The groups were as follows: standard diet + vehicle, palatable diet + vehicle, palatable diet + KSK-60 (1 mg/kg), palatable diet + KSK-60 (10 mg/kg), palatable diet + KSK-74 (1 mg/kg), palatable diet + KSK-74 (10 mg/kg), palatable diet + phentermine (7 mg/kg).
The studies for the 1 mg/kg b.w. and 10 mg/kg b.w. doses were performed at different times, so the parameters studied were compared to the respective control groups.
Rats fed a palatable diet had access to a diet consisting of milk chocolate with nuts, cheese, salted peanuts, and 7% condensed milk, and simultaneously to a standard feed (Labofeed B, Morawski Manufacturer Feed, Poland) for 4 weeks. The water was available ad libitum. Animals had access to palatable products, but also to the standard feed. Most importantly, feeding was not in any way forced, as in other models where animals were fed only a high-fat diet, or temporarily deprived of food (binge eating models). In the case of our model, rats decided themselves when, what, and how much to eat. The weight was evaluated daily. Calorie intake was evaluated three times a week. A palatable diet contained 100 g of peanuts—612 kcal; 100 mL of condensed milk—131 kcal; 100 g of milk chocolate—529 kcal; and 100 g of cheese—325 kcal. The standard diet contained 100 g of feed—280 kcal. Standard diet (fats 8%, carbohydrates 67%, proteins 25%) contained 100 g feed—280 kcal.
The palatable control group (palatable diet + vehicle) received vehicle (1% Tween 80 i.p., daily, for 4 weeks), while palatable test groups were injected i.p. with KSK-60 (1 mg or 10 mg/kg i.p, daily, for 4 weeks), KSK-74 (1 mg/kg or 10 mg/kg i.p, daily, for 4 weeks), or phentermine (7 mg/kg i.p., daily, for 4 weeks), respectively.
On the 31st day, 20 min after i.p. administration of heparin (5000 units/rat) and thiopental (70 mg/kg b.w.), animals were sacrificed, and plasma as well as peritoneal fat pads were collected (food was stopped for 6 h prior to organ, tissue, and plasma collection) for further study.

[3] = test system: rats fed a palatable diet; assay: Plasma triglyceride and corticosterone levels in the model of excessive eating; assay type: in vivo, female Wistar rats; conditions: KSK 10 mg/kg, phentermine 7 mg/kg
Protocol: Blood was collected from the left carotid artery and then centrifuged at 600× g (15 min, 4 °C) to obtain plasma.
To determine plasma triglyceride levels, standard enzymatic and spectrophotometric tests (Cat. No 1-053-A150, Biomaxima S.A., Lublin, Poland) were used. The ELISA Kit (Item No. 501320, Cayman Chemical, Ann Arbor, MI, USA) was used to determine corticosterone levels in plasma.

[4] = test system: rats fed a palatable diet; assay: Intraperitoneal glucose tolerance test; assay type: in vivo, female Wistar rats; conditions: 10 mg/kg; for blood glucose levels after glucose load vs control animals fed palatable feed: glucose 1 g/kg i.p., 29th day
Protocol: The test was conducted on the 29th day of the experiment. After twenty-eight administrations of the test compounds, the food was stopped for 20 h and then glucose tolerance was tested. Glucose (1 g/kg b.w.) was administered i.p.. Blood samples were obtained from the tail vein at the time points 0 (before glucose administration), 30, 60, and 120 min after administration. Glucose levels were measured with a glucometer (ContourTS, Bayer, Leverkusen, Germany, test stripes: ContourTS, Ascensia Diabetes care Poland Sp. z o. o., Poland, REF:84239666). The area under the curve (AUC) was calculated using the trapezoidal rule.

T1 sequence (Q9Y5N1 whole entry): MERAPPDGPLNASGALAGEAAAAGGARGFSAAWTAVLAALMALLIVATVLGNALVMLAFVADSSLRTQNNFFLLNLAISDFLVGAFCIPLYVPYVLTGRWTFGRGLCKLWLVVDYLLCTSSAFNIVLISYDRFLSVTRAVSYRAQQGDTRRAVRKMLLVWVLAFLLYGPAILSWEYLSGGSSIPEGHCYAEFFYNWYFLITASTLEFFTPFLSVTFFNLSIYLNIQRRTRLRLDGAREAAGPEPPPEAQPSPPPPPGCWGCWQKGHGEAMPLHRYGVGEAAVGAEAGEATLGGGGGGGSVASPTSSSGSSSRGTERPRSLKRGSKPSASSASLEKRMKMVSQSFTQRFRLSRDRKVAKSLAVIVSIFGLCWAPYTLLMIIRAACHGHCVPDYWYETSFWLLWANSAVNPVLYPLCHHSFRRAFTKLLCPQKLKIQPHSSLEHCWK

Row | IC50 [1] [nM] | Structure (SMILES) | body weight during administration (time course) [2] | amount of peritoneal fat pads vs palatable diet + vehicle [2] | calorie intake vs control group fed palatable feed [2] | body weight vs palatable diet + vehicle [2] | body weight gain vs palatable diet + vehicle [2] | plasma triglyceride levels vs palatable diet + vehicle [3] | area under the IPGTT curve (AUC) vs rats fed high-calorie feed [4] | blood glucose levels after glucose load vs control animals fed palatable feed [4] | milk intake vs control group fed palatable feed ([2]; 10 mg/kg b.w.) | peanuts intake vs control group fed palatable feed ([2]; 10 mg/kg b.w.)
1 | 0.8 to 1.5 | CCC(=O)c1ccc(OCCCCCCN2CCN(c3ccncc3)CC2)cc1 [KSK-60] | significant inhibition of body weight gain around the 10th day | fewer peritoneal fat pads | did not significantly influence the amount of calories consumed | No differences in body weight | gained significantly less weight | No differences in plasma triglyceride levels | decreased significantly | significantly lower at 30 or/and 60 min after glucose load | – | –
2 | 23 to 32 | CCC(=O)c1ccc(OCCCCCCCCN2CCN(c3ccncc3)CC2)cc1 [KSK-74] | significant inhibition of body weight gain around the 10th day | fewer fat pads | did not significantly influence the amount of calories consumed | No differences in body weight | gained significantly less weight | lower plasma triglyceride levels | decreased significantly | significantly lower at 30 or/and 60 min after glucose load | consumed significantly less milk in the first and second weeks | significantly less peanuts in the fourth week
